Results taken from US12673041B2, “4-aminobut-2-enamide derivatives and salt thereof” (TAIHO PHARMACEUTICAL CO., LTD., priority 2019, dated 2026).

Assays:
[1] = target: Gppcp-bound recombinant K-Ras4B G12C mutant protein (amino acids 1-169, C51S/C80L/C118S) (Homo sapiens, UniProt P01116, C118S/C51S/C80L/G12C); assay: KRASG12C binding assay (LC-MS compound binding rate); settings: test compound final concentration 0.5 μM, 25° C., 1 hour
In short: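 Gppcp-bound K-Ras4B G12C (aa 1-169, C51S/C80L/C118S) at 50 nM in 1×TBS, 0.1 mM TCEP, 0.25 mM MgCl2, 50 μM Gppcp was incubated 1 hour at 25° C with compound at 0.5 μM final. Intact-protein LC-MS gave binding rate as single-adduct signal over total KRAS signal, graded A (≥80%) to E (<20%).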

[2] = target: T1, GMPPNP-bound KRAS G12C protein and cRAF RAS-binding domain (cRAF-RBD) (Homo sapiens, UniProt P01116, G12C); assay: Inhibitory activity on interaction between KRAS G12C and cRAF (Alpha technology); format: biochemical; settings: GMPPNP-bound KRAS G12C incubated with compound at 25° C. for 1 hour, then cRAF-RBD, Alpha signal; read-out: IC50
T1 construct: made in house; host or cells: E. coli
In short: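 GMPPNP-loaded His-KRAS G12C (aa 1-169) preincubated 1 h at 25 °C with compound (pH 7.5 Tris, 1 mM MgCl2, TCEP, Tween 20), then cRAF-RBD (aa 50-132) and Alpha reagents added for 1.5 h at RT. Inhibition scaled between DMSO (0%) and GDP-bound KRAS (100%); IC50 by curve fitting.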

MIA PaCa-2 cells = assay: Growth inhibition activity on KRAS-G12C mutant cell line (MIA PaCa-2); format: cell-based; settings: Homo sapiens, 72 h; MIA PaCa-2, 3-day culture, CellTiter-Glo 3D
Protocol: MIA PaCa-2 cells (given by Sumitomo Dainippon Pharma Co., Ltd.), which are a KRAS-G12C mutant human pancreas cancer cell line, were suspended in a 10% fetal bovine serum-containing RPMI1640 medium (manufactured by Fujifilm Wako Pure Chemical Corporation.). The cell suspension was seeded into each well of a 384-well U bottom microplate and cultured in an incubator containing 5% CO2 gas at 37° C. for 1 day. The compounds obtained in the “Preparation of Compounds” section were used as test compounds and were dissolved in DMSO, respectively, and each test compound was diluted with DMSO to give a concentration 500 times the final concentration. The resultant solution of the test compound in DMSO was diluted with the medium used for suspending cells and added to each well of the cell-culture plate to give a DMSO final concentration of 0.2%, followed by culture in an incubator containing 5% CO2 gas at 37° C. for another 3 days. The cell count after 3-day culture in the presence of the test compound was measured using CellTiter-Glo 3D Reagent (manufactured by Promega Corporation). All wells were added with CellTiter-Glo 3D Reagent and mixed for 10 minutes. 30 minutes after mixing, luminescence was measured by a plate reader. The growth inhibition rate was calculated from the following equation, and the concentration of the test compound at which 50% inhibition was achieved (IC50 (nM)) was determined. […] Growth Inhibition Rate (%)=(C−T)/(C)×100 • T: the emission intensity in a well into which a test compound was added. • C: the emission intensity in a well into which a test compound was not added.

Structure (SMILES) | binding rate [1] | IC50 [2] [nM] | IC50 (MIA PaCa-2 cells) [nM]
Cn1cnc2cc(-c3cccn4c(C(=O)c5cc(F)c(NC(=O)/C=C/CNC(C)(C)C)c(F)c5)cnc34)c(C(F)(F)F)cc21 [Example 67, (E)-4-(tert-butylamino)-N-(2,6-difluoro-4-(8-(1-methyl-6-(trifluoromethyl)-1H-benzo[d]imidazol-5-yl)imidazo[1,2-a]pyridine-3-carbonyl)phenyl)but-2-enamide] | B (a binding rate of 60% or more and less than 80% is rated “B”) | 63 | 560
CO[C@H]1CC[C@H](NC/C=C/C(=O)Nc2c(F)cc(C(=O)c3cnc4c(-c5cc6ncn(C)c6cc5C(F)(F)F)cccn34)cc2F)CC1 [Example 68, (E)-N-(2,6-difluoro-4-(8-(1-methyl-6-(trifluoromethyl)-1H-benzo[d]imidazol-5-yl)imidazo[1,2-a]pyridine-3-carbonyl)phenyl)-4-(((1r,4r)-4-methoxycyclohexyl)amino)but-2-enamide] | B (a binding rate of 60% or more and less than 80% is rated “B”) | 57 | 240
CO[C@H]1CC[C@H](NC/C=C/C(=O)Nc2c(F)cc(C(=O)c3ccc4c(-c5cc6ncn(C)c6cc5C(F)(F)F)cccn34)cc2F)CC1 [Example 70, (E)-N-(2,6-difluoro-4-(8-(1-methyl-6-(trifluoromethyl)-1H-benzo[d]imidazol-5-yl)indolizine-3-carbonyl)phenyl)-4-(((1r,4r)-4-methoxycyclohexyl)amino)but-2-enamide] | A (A binding rate of 80% or more is rated “A”) | 27 | 72
Cc1cc2c(cc1-c1cccn3c(C(=O)c4cc(F)c(NC(=O)/C=C/CNC(C)(C)C)c(F)c4)ccc13)ncn2C [Example 72, (E)-4-(tert-butylamino)-N-(4-(8-(1,6-dimethyl-1H-benzo[d]imidazol-5-yl)indolizine-3-carbonyl)-2,6-difluorophenyl)but-2-enamide] | A (A binding rate of 80% or more is rated “A”) | 34 | 200
CO[C@H]1CC[C@H](NC/C=C/C(=O)Nc2c(F)cc(C(=O)c3ccc4c(-c5cc6ncn(C)c6cc5C)cccn34)cc2F)CC1 [Example 73, (E)-N-(4-(8-(1,6-dimethyl-1H-benzo[d]imidazol-5-yl)indolizine-3-carbonyl)-2,6-difluorophenyl)-4-(((1r,4r)-4-methoxycyclohexyl)amino)but-2-enamide] | A (A binding rate of 80% or more is rated “A”) | 32 | 280
CO[C@H]1CC[C@H](N(C)C/C=C/C(=O)Nc2ccc(C(=O)c3ccc4c(-c5cc6ncn(C)c6cc5C(F)(F)F)cccn34)cc2C#N)CC1 [Example 78, (E)-N-(2-cyano-4-(8-(1-methyl-6-(trifluoromethyl)-1H-benzo[d]imidazol-5-yl)indolizine-3-carbonyl)phenyl)-4-(((1r,4r)-4-methoxycyclohexyl)(methyl)amino)but-2-enamide] | C (a binding rate of 40% or more and less than 60% is rated “C”) | 96 | 400
CO[C@H]1CC[C@H](NC/C=C/C(=O)Nc2ccc(C(=O)c3cnc4c(-c5cc6ncn(C)c6cc5C(F)(F)F)cccn34)cc2C#N)CC1 [Example 80, (E)-N-(2-cyano-4-(8-(1-methyl-6-(trifluoromethyl)-1H-benzo[d]imidazol-5-yl)imidazo[1,2-a]pyridine-3-carbonyl)phenyl)-4-(((1r,4r)-4-methoxycyclohexyl)amino)but-2-enamide] | A (A binding rate of 80% or more is rated “A”) | 27 | 190
COc1cc2c(cc1-c1cccn3c(C(=O)c4ccc(NC(=O)/C=C/CN[C@H]5CC[C@H](OC)CC5)c(C#N)c4)ccc13)ncn2C [Example 81, (E)-N-(2-cyano-4-(8-(6-methoxy-1-methyl-1H-benzo[d]imidazol-5-yl)indolizine-3-carbonyl)phenyl)-4-(((1r,4r)-4-methoxycyclohexyl)amino)but-2-enamide] | A (A binding rate of 80% or more is rated “A”) | 21 | 70
